Reference: patent US9636299B2, “Method for treating diabetic retinopathy” (XAVIER UNIVERSITY OF LOUISIANA, priority 2012, dated 2017)
Residues, ends and D or L forms follow the SMILES beside them.

Assays:
heparanase [1] = test: Streptozotocin-induced diabetic mice, heparanase expression; format: in vivo, mouse; details: either 14-day eye drop application or systemic i/p injection
Protocol: (§1) Streptozotocin (STZ) induced diabetes. Twelve week old C57Bl/6 mice were used for this study. Mice were induced to have diabetes by intraperitoneal injection of 170 μg/g of streptozotocin (Sigma Aldrich, St. Louis, Mo.). Controls were injected with a vehicle (0.01M sodium citrate buffer). On the third day after STZ treatment, mice tail veins were bled to test the hyperglycemic status using blood sugar detection kit (Lifescan; Johnson & Johnson, Milpitas, Calif.). Mice with blood sugar levels of >300 mg/dL on the third day after STZ treatment were considered diabetic. Eye drop treatment containing 1% apoEdp or vehicle PBS was continued 4 times a day for 14 consecutive days. Intra-peritoneal (i/p) injection containing 40 mg/kg of apoEdp or vehicle control PBS was administered once daily for 14 consecutive days. On the 15th day post-treatment, mice were euthanized, their eyes enucleated, and the retinas dissected out to use for mRNA or Western blot analysis.
Increased vascular permeability in diabetic retinopathy (DR) is reported to result in a concomitant increase of VEGF. The VEGF pathway is known to play a role in breakdown of the BRB through a mechanism involving the down regulation of tight junction proteins in the retinal microvasculature (20).

LRP-1 = test: Streptozotocin-induced diabetic mice, retinal LRP-1 protein; format: in vivo, mouse
Protocol: as §1

heparanase [2] = test: Heparanase expression in high glucose-treated hRMECs (Western blot); format: cell-based, human; details: 30 mM glucose 72 hours, 50 or 100 μM apoEdp
Description: Cell Culture. Primary cultures of human retina microvascular endothelial cells (hRMECs) were purchased from the Applied Cell Biology Research Institute and grown on attachment factor-coated plates in cell systems complete (CSC) medium (Cell Systems, Kirkland, Wash.) supplemented with 20% fetal bovine serum, culture boost (animal derived growth factors) and bac-off (antibiotics). The primary hRMECs were used in their passages 4 to 6. The 18-a.a. apoE mimetic peptide apoEdp (SEQ ID NO:3, Ac-LRKLRKRLLLRKLRKRLL-amide), derived from the human apolipoprotein E receptor-binding region (see SED ID NO:1) between residues 141 and 149, was synthesized (Genemed, Arlington, Tex.) with a purity of greater than 95%. The apoEdp peptide was dissolved in phosphate-buffered saline (“PBS”) at a concentration appropriate for further experimental use. […]
Western Blotting. […] The total protein concentration was determined using a BCA protein assay kit (Pierce, Rockford, Ill.). […] To ensure the equal loading of protein in each lane, each membrane was stripped and re-probed with an antibody against β-actin, and the chemiluminescence was detected as described previously. After scanning the blots with a flatbed scanner, band intensities were analyzed using ImageJ (NIH) and the relative intensity values were normalized to control values. […]

## CC(=O)N[C@@H](CC(C)C)C(=O)N[C@@H](CCCNC(=N)N)C(=O)N[C@@H](CCCCN)C(=O)N[C@@H](CC(C)C)C(=O)N[C@@H](CCCNC(=N)N)C(=O)N[C@@H](CCCCN)C(=O)N[C@@H](CCCNC(=N)N)C(=O)N[C@@H](CC(C)C)C(=O)N[C@@H](CC(C)C)C(=O)N[C@@H](CC(C)C)C(=O)N[C@@H](CCCNC(=N)N)C(=O)N[C@@H](CCCCN)C(=O)N[C@@H](CC(C)C)C(=O)N[C@@H](CCCNC(=N)N)C(=O)N[C@@H](CCCCN)C(=O)N[C@@H](CCCNC(=N)N)C(=O)N[C@@H](CC(C)C)C(=O)N[C@@H](CC(C)C)C(N)=O [apoEdp, Ac-LRKLRKRLLLRKLRKRLL-amide] (Ac-LRKLRKRLLLRKLRKRLL-NH2)
Heparanase [1]
  Increased expression of heparanase: reversed increased expression of heparanase
LRP-1; 1% apoEdp via eye drops
  Retinal LRP-1 protein levels: significant reduction
LRP-1; 1% apoEdp via intraperitoneal (i/p) injection
  Retinal LRP-1 protein levels: significant reduction
Heparanase [2]
  High glucose-induced expression of heparanase: suppressed the expression
